Structures can show the parent of a compound that is named as a salt.
Key:
[1] = biological target: T1, hemoglobin in stool samples (Homo sapiens, UniProt P68871+P69905); assay: 3-Day shipping simulation, hemoglobin % recovery by ELISA; set-up: from tissue; host or cells: stool samples; conditions: for Notes (Hb stability vs Hb Collection Buffer): additive concentrations as in the 8th table;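 as to all read-outs here: stool samples put through shipping stress in a thermal cycler, hemoglobin quantified by ELISA before and after, stability given as post-stress % of the pre-stress level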
[2] = biological target: T1, hemoglobin in stool samples; assay: Accelerated shipping simulation (35C 16 hour challenge), hemoglobin % recovery by ELISA; set-up: from tissue; host or cells: stool samples;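 also: stool hemoglobin measured by ELISA before and after thermal-cycler shipping stress, stability given as percent of pre-stress hemoglobin recovered afterwards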
[3] = biological target: T2, hemoglobin (Hb) (Homo sapiens, UniProt P68871+P69905); assay: Appendix B: additives in Hb Collection Buffer, % Hb Recovery
T2 construct: To assess the stability of hemoglobin in stool samples, samples were exposed to simulated shipping stress conditions; from tissue; host or cells: stool samples
T2 sequence (P69905 2-142 limits assumed): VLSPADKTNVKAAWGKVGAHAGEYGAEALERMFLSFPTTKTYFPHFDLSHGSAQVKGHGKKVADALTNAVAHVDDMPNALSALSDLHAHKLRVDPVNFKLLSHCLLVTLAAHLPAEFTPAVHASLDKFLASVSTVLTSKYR
T2 sequence (P68871 2-147 limits assumed): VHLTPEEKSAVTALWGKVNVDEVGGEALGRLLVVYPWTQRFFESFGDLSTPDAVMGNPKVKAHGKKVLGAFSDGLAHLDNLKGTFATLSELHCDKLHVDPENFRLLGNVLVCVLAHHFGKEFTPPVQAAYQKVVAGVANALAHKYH

T1 sequence (P69905 2-142 limits assumed): as the sequence (P69905 2-142 limits assumed) above
T1 sequence (P68871 2-147 limits assumed): as the sequence (P68871 2-147 limits assumed) above

O=C([O-])CNCO.[Na+] [Soduim hyrdoxylmethyl glycinate]
Results ([1]; additive concentration 10 mM): No Improvement | Results ([1]; additive concentration 25 mM): No Improvement | Results ([1]; additive concentration 50 mM): No Improvement | Results ([1]; additive concentration 75 mM): No Improvement | Results ([1]; additive concentration 90 mM): No Improvement

CCC(=O)[O-].CCC(=O)[O-].[Ca+2] [Calcium Propionate]
Results ([1]; additive concentration 5 mM): Calcium cation shows | Results ([1]; additive concentration 10 mM): Calcium cation shows | Results ([1]; additive concentration 20 mM): Calcium cation shows | Results ([1]; additive concentration 30 mM): Calcium cation shows | Results ([1]; additive concentration 40 mM): Calcium cation shows | Results ([1]; additive concentration 50 mM): Calcium cation shows

Cc1c(C)c2c(c(C)c1O)CCC(C)(CCCC(C)CCCC(C)CCCC(C)C)O2 (centres unmarked) [Tocopherol]
Results ([1]; Additive Concentration 0.10%): No improvement | Results ([1]; Additive Concentration 1%): No improvement | Results ([1]; Additive Concentration 10%): No improvement

O=c1cc(-c2ccccc2)oc2c(O)c(O)ccc12 [7,8 dihydroxyflavone]
Results ([1]; additive concentration 0.5 mM): No improvement | Results ([1]; additive concentration 1 mM): No improvement

O=C(NCO)N(CO)C1(CO)C(=O)NC(=O)N1CO (centres unmarked) [Diazolidinyl Urea]
Results ([1]; additive concentration 10 mM): No Improvement | Results ([1]; additive concentration 25 mM): No Improvement | Results ([1]; additive concentration 50 mM): No Improvement | Results ([1]; additive concentration 75 mM): No Improvement | Results ([1]; additive concentration 100 mM): No Improvement | Results ([2]; additive concentration 10 uM): No Improvement | Results ([2]; additive concentration 100 uM): No Improvement | Results ([2]; additive concentration 1 mM): No Improvement | Results ([2]; additive concentration 10 mM): No Improvement

C=CC1=C(C)c2cc3[n-]c(cc4nc(cc5[n-]c(cc1n2)c(C)c5C=C)C(C)=C4CCC(=O)O)c(CCC(=O)O)c3C.[Cl-].[Fe+3] [Hemin, pH 6.5]
Results ([3]; Additive Concentration 0.00%): Improvement in % Hb | Results ([3]; additive concentration 0.0003%): Improvement in % Hb

C=CC1=C(C)c2cc3[n-]c(cc4nc(cc5[n-]c(cc1n2)c(C)c5C=C)C(C)=C4CCC(=O)O)c(CCC(=O)O)c3C.[Cl-].[Mn+3] [Protoporphyrin IX Mangansese]
Results ([3]; Additive Concentration 0.05 uM): No Improvement | Results ([3]; Additive Concentration 0.1 uM): No Improvement | Results ([3]; Additive Concentration 1 uM): No Improvement | Results ([3]; additive concentration 10 uM): No Improvement

C=CC1=C(C)c2cc3[n-]c(cc4nc(cc5[n-]c(cc1n2)c(C)c5CCC(=O)O)C(CCC(=O)O)=C4C)c(C)c3C=C.[Mg+2] [Protoporphyrin IX Magnesium]
Results ([3]; Additive Concentration 0.1 uM): No Improvement | Results ([3]; Additive Concentration 1 uM): No Improvement | Results ([3]; additive concentration 10 uM): No Improvement | Results ([3]; additive concentration 25 uM): No Improvement | Results ([3]; additive concentration 50 uM): No Improvement

O=CCCCC=O [Glutaraldehyde Solution]
Results ([1]; additive concentration 0.010%): No Improvement | Results ([1]; additive concentration 0.020%): No Improvement | Results ([1]; additive concentration 0.030%): No Improvement | Results ([1]; additive concentration 0.035%): No Improvement | Results ([1]; additive concentration 0.040%): No Improvement | Results ([1]; additive concentration 0.050%): No Improvement | Results ([1]; additive concentration 0.060%): Assay Interference | Results ([1]; additive concentration 0.070%): Assay Interference | Results ([1]; additive concentration 0.080%): No Improvement | Results ([1]; additive concentration 0.090%): No Improvement | Results ([1]; additive concentration 0.100%): No Improvement

O=C(O)[C@H]1OC(O)[C@H](O)[C@@H](O)[C@H]1O (some centres unmarked) [Galaturonic Acid]
Results ([3]; Additive Concentration 0.01%): No Improvement | Results ([3]; Additive Concentration 0.01% + 10 mM): No improvement | Results ([3]; Additive Concentration 0.10%): No Improvement | Results ([3]; Additive Concentration 0.1% + 10 mM): No improvement | Results ([3]; Additive Concentration 1%): No Improvement | Results ([3]; Additive Concentration 1% + 10 mM): No improvement

O=c1c(O)c(-c2ccc(O)c(O)c2)oc2cc(O)cc(O)c12 [Quercetin]
Results ([1]; Additive Concentration 150 uM): No improvement | Results ([1]; Additive Concentration 300 uM): No improvement | Results ([1]; Additive Concentration 600 uM): No improvement | Results ([2]; additive concentration 0.6 uM): No Improvement | Results ([2]; additive concentration 6 uM): No Improvement | Results ([2]; additive concentration 60 uM): No Improvement

Cc1ncc(CO)c(CO)c1O [Vitamine B6 in HCl]
Results ([1]; additive concentration 0.5 mM): No improvement | Results ([1]; additive concentration 1 mM): No improvement | Results ([1]; additive concentration 2 mM): No improvement

[Cl][Co][Cl] [Cobalt Chloride]
Results ([1]; additive concentration 0.001M): No Improvement | Results ([1]; additive concentration 0.01M): No Improvement | Results ([1]; additive concentration 0.05M): No Improvement

C=O [Formaldehyde Solution]
Results ([1]; additive concentration 0.010%): No Improvement | Results ([1]; additive concentration 0.020%): No Improvement | Results ([1]; additive concentration 0.030%): No Improvement | Results ([1]; additive concentration 0.035%): No Improvement | Results ([1]; additive concentration 0.040%): No Improvement | Results ([1]; additive concentration 0.050%): No Improvement | Results ([1]; additive concentration 0.060%): No Improvement | Results ([1]; additive concentration 0.070%): No Improvement | Results ([1]; additive concentration 0.080%): No Improvement | Results ([1]; additive concentration 0.090%): No Improvement | Results ([1]; additive concentration 0.100%): No Improvement | Results ([1]; additive concentration […]): No Improvement

[Cl][Cu][Cl] [Copper Chloride]
Results ([1]; additive concentration 1 mM): No Improvement | Results ([1]; additive concentration 10 mM): No Improvement | Results ([1]; additive concentration 25 mM): No Improvement

Cn1sccc1=O [Methylisothiazolone]
Results ([1]; Additive Concentration 0.0001%): No improvement | Results ([1]; Additive Concentration 0.0002%): No improvement | Results ([1]; Additive Concentration 0.0010%): No improvement | Results ([1]; Additive Concentration 0.0020%): No improvement | Results ([1]; additive concentration 0.00005%): No improvement

O=C1O[C@H]([C@@H](O)CO)C(O)=C1O [Ascorbic Acid]
Results ([1]; additive concentration 0.5 mM): No improvement | Results ([1]; additive concentration 1 mM): No improvement | Results ([1]; additive concentration 5 mM): No improvement | Results ([2]; additive concentration 0.2 uM): No Improvement | Results ([2]; additive concentration 5 uM): No Improvement | Results ([2]; additive concentration 10 uM): No Improvement | Results ([2]; additive concentration 100 uM): No Improvement | Results ([2]; additive concentration 10 mM): No Improvement | Results ([2]; additive concentration 25 mM): No Improvement | Results ([2]; additive concentration l uM): No Improvement

[Cl-].[Cl-].[Zn+2] [Zinc Chloride]
Results ([1]; additive concentration 1 mM): No Improvement | Results ([1]; additive concentration 10 mM): No Improvement | Results ([1]; additive concentration 25 mM): No Improvement

C=CC1=C(C)c2cc3[n-]c(cc4nc(cc5[n-]c(cc1n2)c(C)c5C=C)C(C)=C4CCC(=O)O)c(CCC(=O)O)c3C.[Cl-].[Cl-].[Sn+4] [Protoporphyrin IX Tin]
Results ([3]; Additive Concentration 0.1 uM): No Improvement | Results ([3]; Additive Concentration 1 uM): No Improvement | Results ([3]; additive concentration 10 uM): No Improvement

O=[N+]([O-])C1(Br)COCOC1 [Bronidox]
Results ([1]; Additive Concentration 0.0002%): No improvement | Results ([1]; Additive Concentration 0.0010%): No improvement | Results ([1]; Additive Concentration 0.0020%): No improvement

O=c1c(-c2ccc(O)cc2)coc2cc(O)ccc12 [Diadzein]
Results ([1]; Additive Concentration 60 mM): No improvement | Results ([1]; additive concentration 25 uM): No improvement | Results ([1]; additive concentration 50 uM): No improvement | Results ([1]; additive concentration 100 uM): No improvement | Results ([1]; additive concentration 40 mM): No improvement | Results ([1]; additive concentration 50 mM): No improvement

[Cl][Ni][Cl] [Nickel Chloride]
Results ([1]; additive concentration 1 mM): No Improvement | Results ([1]; additive concentration 10 mM): No Improvement | Results ([1]; additive concentration 25 mM): No Improvement

[Cl][Fe]([Cl])[Cl] [Iron (3) Chloride]
Results ([1]; additive concentration 1 mM): No Improvement | Results ([1]; additive concentration 5 mM): No Improvement | Results ([1]; additive concentration 10 mM): No Improvement

BSA, pH 6.5
Results ([3]; Additive Concentration 0%): No Improvement | Results ([3]; Additive Concentration 0.50%): No Improvement | Results ([3]; Additive Concentration 1%): No Improvement | Results ([3]; Additive Concentration 5%): No Improvement | Results ([3]; Additive Concentration 10%): No Improvement

OC[C@H]1O[C@@](CO)(O[C@H]2O[C@H](CO)[C@@H](O)[C@H](O)[C@H]2O)[C@@H](O)[C@@H]1O [Sucrose]
Notes (Hb stability vs Hb Collection Buffer) [1]: Improved Hb | Results ([2]; additive concentration […]): Improvement

N.N.N.O=C(O)C1=CC(=C(c2ccc(O)c(C(=O)O)c2)c2ccc(O)c(C(=O)O)c2)C=CC1=O [aurintircarboxylic acid ammonium salt]
Results ([1]; Additive Concentration 5%): No improvement | Results ([1]; Additive Concentration 10%): No improvement | Results ([1]; Additive Concentration 25%): No improvement

Oc1ccc(C=Cc2cc(O)cc(O)c2)cc1 [Resveratrol]
Results ([1]; Additive Concentration 10 mM): No improvement | Results ([1]; additive concentration 5 mM): No improvement | Results ([1]; additive concentration 20 mM): No improvement

N[C@@H](CS)C(=O)O [Cysteine]
Results ([2]; Additive Concentration 0.1 uM): No Improvement | Results ([2]; Additive Concentration 1 uM): No Improvement | Results ([2]; additive concentration 5 uM): No Improvement | Results ([2]; additive concentration 0.01 mM): No Improvement | Results ([2]; additive concentration 0.1 mM): No Improvement | Results ([2]; additive concentration 1 mM): No Improvement | Results ([2]; additive concentration 10 mM): No Improvement

C=CC1=C(C)c2cc3[n-]c(cc4[n-]c(cc5nc(cc1n2)C(C)=C5C=C)c(C)c4CCC(=O)O)c(CCC(=O)O)c3C.O.[Fe+2] [Hematin]
Results ([2]; additive concentration 6 uM): Improvement in % Hb

BSA (10 mM MOPS)
Results ([1]; Additive Concentration 1%): No Improvement

OC[C@H]1O[C@H](O[C@H]2O[C@H](CO)[C@@H](O)[C@H](O)[C@H]2O)[C@H](O)[C@@H](O)[C@@H]1O [Trehalose]
Notes (Hb stability vs Hb Collection Buffer) [1]: Improved Hb | Results ([2]; additive concentration 0.0174 mM): No Improvement | Results ([2]; additive concentration 0.174 mM): No Improvement | Results ([2]; additive concentration 1.74 mM): No Improvement | Results ([2]; additive concentration 10 mM): No Improvement | Results ([2]; additive concentration 16.76 mM): No Improvement | Results ([2]; additive concentration 0.3M): Improvement

O=C([O-])CC[C@@H](C(=O)[O-])N(CC(=O)[O-])CC(=O)[O-].[Na+].[Na+].[Na+].[Na+]
Results ([2]; Additive Concentration 0.1 uM): No Improvement | Results ([2]; Additive Concentration 1 uM): No Improvement | Results ([2]; additive concentration 5 uM): No Improvement | Results ([2]; additive concentration 0.01 mM): No Improvement | Results ([2]; additive concentration 0.1 mM): No Improvement | Results ([2]; additive concentration 1 mM): No Improvement | Results ([2]; additive concentration 10 mM): No Improvement
